The source of these data is EPA's CvTdb concentration-time database.

Data set [1] has as its system Rat. The experiment in a line: concentration in plasma after dosing. The following applies: 2 h; dosed: Wyeth-14643; 2.0 mg/kg; oral; Male; Sprague-Dawley.
In data set [2] the test system is Rat. The experiment in a line: concentration in plasma after dosing. The settings on record: 3 h; dosed: Wyeth-14643; 1.0 mg/kg; oral; Male; Sprague-Dawley.
Data set [3] concerns Rat. The experiment in a line: concentration in plasma after dosing. The following applies: dosed: Wyeth-14643, 5.0 mg/kg, oral, Male, Sprague-Dawley.
The subject of data set [4] is Rat. The data set can be described thus: concentration in plasma after dosing. The following applies: dosed: Wyeth-14643, 2.0 mg/kg, oral, Male, Sprague-Dawley.
Data set [5] relates to Rat. The experiment in a line: concentration in heart after dosing. The settings on record: 40 min; dosed: Bis 2-Chloroethoxy Methane; 20 mg/kg; iv; Female; F344.
The subject of data set [6] is Rat. The data set can be described thus: concentration in liver after dosing. The following applies: 20 min; dosed: Bis 2-Chloroethoxy Methane; 20 mg/kg; iv; Male; F344.
Data set [7] concerns Rat. The data set can be described thus: concentration in heart after dosing. The following applies: 3 h; dosed: Bis 2-Chloroethoxy Methane; 20 mg/kg; iv; Male; F344.
Data set [8] concerns Rat. The data set can be described thus: concentration in liver after dosing. The settings on record: 10 min; dosed: Bis 2-Chloroethoxy Methane; 20 mg/kg; iv; Male; F344.
In data set [9] the test system is Rat. The experiment in a line: concentration in heart after dosing. The following applies: 5 h; dosed: Bis 2-Chloroethoxy Methane; 20 mg/kg; iv; Female; F344.
The test system of data set [10] is Rat. The data set can be described thus: concentration in liver after dosing. The following applies: 4 h; dosed: Bis 2-Chloroethoxy Methane; 20 mg/kg; iv; Male; F344.
Data set [11] concerns Rat. The experiment in a line: concentration in plasma after dosing. The following applies: 5 h; dosed: Bis 2-Chloroethoxy Methane; 20 mg/kg; iv; Male; F344.
Data set [12] deals with Rat. The experiment in a line: concentration in thymus after dosing. The following applies: 10 min; dosed: Bis 2-Chloroethoxy Methane; 20 mg/kg; iv; Female; F344.
Data set [13] concerns Rat. The data set can be described thus: concentration in plasma after dosing. The settings on record: 10 min; dosed: Bis 2-Chloroethoxy Methane; 20 mg/kg; iv; Female; F344.
The test system of data set [14] is Rat. The experiment in a line: concentration in thymus after dosing. The following applies: 4 h; dosed: Bis 2-Chloroethoxy Methane; 20 mg/kg; iv; Female; F344.
For data set [15], the system named is Rat. The data set can be described thus: concentration in liver after dosing. The settings on record: 3 h; dosed: Fluorotelomer alcohol 8+2; 24 mg/kg; oral; Male; Harlan Sprague Dawley.
For data set [16], the system named is Rat. The experiment in a line: concentration in brain after dosing. The following applies: 3 h; dosed: Fluorotelomer alcohol 8+2; 24 mg/kg; oral; Male; Harlan Sprague Dawley.
The subject of data set [17] is Rat. The data set can be described thus: concentration in liver after dosing. The following applies: 1 h; dosed: Fluorotelomer alcohol 8+2; 80 mg/kg; oral; Female; Harlan Sprague Dawley.
Data set [18] deals with Rat. The experiment in a line: concentration in kidney after dosing. The following applies: 3 h; dosed: Fluorotelomer alcohol 8+2; 24 mg/kg; oral; Male; Harlan Sprague Dawley.
Data set [19] concerns Rat. The experiment in a line: concentration in plasma after dosing. The following applies: dosed: Fluorotelomer alcohol 8+2, 12 mg/kg, oral, Male, Harlan Sprague Dawley.
Data set [20] has as its system Rat. The data set can be described thus: concentration in plasma after dosing. The following applies: dosed: Fluorotelomer alcohol 8+2, 12 mg/kg, iv, Male, F344.
The subject of data set [21] is Rat. The data set can be described thus: concentration in plasma after dosing. The settings on record: dosed: Fluorotelomer alcohol 8+2, 40 mg/kg, iv, Female, Harlan Sprague-Dawley.
For data set [22], the system named is Rat. The experiment in a line: concentration in plasma after dosing. The following applies: dosed: Fluorotelomer alcohol 8+2, 12 mg/kg, oral, Male, Harlan Sprague Dawley. This is another data set of the same source.
Data set [23] has as its system Rat. The experiment in a line: concentration in plasma after dosing. The settings on record: 10 min; dosed: Di-n-butyl phthalate; 20 mg/kg; iv; Male; Sprague-Dawley.
Data set [24] relates to Rat. The experiment in a line: concentration in plasma after dosing. The settings on record: dosed: Perfluorodecanoic acid, 2 mg/kg, iv, Male, F344.
Data set [25] deals with Rat. The experiment in a line: concentration in plasma after dosing. The following applies: dosed: Perfluorodecanoic acid, 2 mg/kg, iv, Male, F344. The source holds these as a separate data set.
Data set [26] deals with Rat. The data set can be described thus: concentration in plasma after dosing. The following applies: 22 h; dosed: Primidone; 80 mg/kg; oral; Male; F344.
The test system of data set [27] is Rat. The data set can be described thus: concentration in heart after dosing. The following applies: 20 min; dosed: Thiodiglycolic Acid; 20 mg/kg; iv; Female; Harlan Sprague Dawley.
In data set [28] the test system is Rat. The experiment in a line: concentration in liver after dosing. The following applies: 20 min; dosed: Thiodiglycolic Acid; 20 mg/kg; iv; Female; Harlan Sprague Dawley.
Data set [29] concerns Rat. The experiment in a line: concentration in liver after dosing. The following applies: 10 min; dosed: Thiodiglycolic Acid; 20 mg/kg; iv; Male; F344.
Data set [30] deals with Rat. The data set can be described thus: concentration in liver after dosing. The following applies: 1 h; dosed: Thiodiglycolic Acid; 20 mg/kg; iv; Male; Harlan Sprague Dawley.
Data set [31] deals with Rat. The data set can be described thus: concentration in liver after dosing. The following applies: 10 h; dosed: Thiodiglycolic Acid; 20 mg/kg; iv; Male; F344.
The subject of data set [32] is Rat. The data set can be described thus: concentration in liver after dosing. The settings on record: 1 h; dosed: Thiodiglycolic Acid; 20 mg/kg; iv; Female; Harlan Sprague Dawley.
For data set [33], the system named is Rat. The experiment in a line: concentration in heart after dosing. The following applies: 2 h; dosed: Thiodiglycolic Acid; 20 mg/kg; iv; Female; Harlan Sprague Dawley.
The test system of data set [34] is Rat. The data set can be described thus: concentration in liver after dosing. The settings on record: 2 h; dosed: Thiodiglycolic Acid; 20 mg/kg; iv; Male; Harlan Sprague Dawley.
For data set [35], the system named is Rat. The experiment in a line: concentration in thymus after dosing. The following applies: 2 h; dosed: Thiodiglycolic Acid; 20 mg/kg; iv; Male; Harlan Sprague Dawley.
The subject of data set [36] is Rat. The experiment in a line: concentration in thymus after dosing. The following applies: 5.333 h; dosed: Thiodiglycolic Acid; 20 mg/kg; iv; Male; Harlan Sprague Dawley.
In data set [37] the test system is Rat. The experiment in a line: concentration in plasma after dosing. The settings on record: 40 min; dosed: Thiodiglycolic Acid; 20 mg/kg; iv; Female; Harlan Sprague Dawley.
For data set [38], the system named is Rat. The data set can be described thus: concentration in plasma after dosing. The following applies: 40 min; dosed: Thiodiglycolic Acid; 20 mg/kg; iv; Female; Harlan Sprague Dawley. The source holds these as a separate data set.
The subject of data set [39] is Rat. The experiment in a line: concentration in thymus after dosing. The settings on record: 6.667 h; dosed: Thiodiglycolic Acid; 20 mg/kg; iv; Female; Harlan Sprague Dawley.

`Cc1cccc(Nc2cc(Cl)nc(SCC(=O)O)n2)c1C`: the concentration in plasma in the data set on Rat [1] was 925 ng/mL; in the data set on Rat [2], 180 ng/mL; in the data set with Rat [3] (2 h) it was 3450 ng/mL; in the data set on Rat [3] (6 h), 742 ng/mL; in the data set on Rat [4] (0.25 h), 889 ng/mL; with Rat [4] (4 h), 160 ng/mL.

`ClCCOCOCCCl` [Bis 2-Chloroethoxy Methane]: the concentration in heart with Rat [5] amounted to 5350 ng/g; with Rat [7], 116 ng/g; in the data set on Rat [9], 27.4 ng/g. The figures for the concentration in liver in the data set on Rat [6], with Rat [8] and in the data set on Rat [10] were 3030 ng/g, 2500 ng/g and 161 ng/g, respectively. Further, the figures for the concentration in plasma with Rat [11] and in the data set on Rat [13] were 31 ng/mL and 9470 ng/mL, respectively. Besides, the figures for the concentration in thymus in the data set on Rat [12] and with Rat [14] were 44200 ng/g and 108 ng/g, respectively.

Take `OCCC(F)(F)C(F)(F)C(F)(F)C(F)(F)C(F)(F)C(F)(F)C(F)(F)C(F)(F)F` [Fluorotelomer alcohol 8+2]: the values for the concentration in liver in the data set with Rat [15] and in the data set with Rat [17] were 3080 ng/g and 7790 ng/g, respectively. This compound also registered a concentration in brain in the data set with Rat [16] of 1490 ng/g. The compound also yielded a concentration in kidney in the data set with Rat [18] of 631 ng/g. In addition, the concentration in plasma in the data set on Rat [19] (0.25 h) came out at 183 ng/mL; in the data set with Rat [19] (6 h), 27.9 ng/mL; in the data set with Rat [20] (1 h) it was 619 ng/mL; in the data set with Rat [20] (6 h), 38.5 ng/mL; with Rat [21] (0.75 h), 4710 ng/mL; in the data set on Rat [21] (12 h), 55.5 ng/mL. Also, the concentration in plasma turned out to be 318 ng/mL in the data set with Rat [22] (0.75 h) and 6.78 ng/mL in the data set on Rat [22] (12 h).

The compound `CCCCOC(=O)c1ccccc1C(=O)O` [Mono-n-butyl phthalate] came in with a concentration in plasma with Rat [23] of 28800 ng/mL.

Turning to `O=C(O)C(F)(F)C(F)(F)C(F)(F)C(F)(F)C(F)(F)C(F)(F)C(F)(F)C(F)(F)C(F)(F)F` [Perfluorodecanoic acid], the concentration in plasma in the data set with Rat [24] (6 h) amounted to 6360 ng/mL; in the data set with Rat [24] (864 h) it was 1550 ng/mL; in the data set on Rat [25] (24 h), 5550 ng/mL; in the data set with Rat [25] (1848 h), 488 ng/mL.

As to `CCC1(c2ccccc2)C(=O)NC(=O)NC1=O` [Phenobarbital], in the data set on Rat [26], the concentration in plasma was 2870 ng/mL.

As to `O=C(O)CSCC(=O)O` [Thiodiglycolic Acid], the concentration in heart in the data set with Rat [27] was found to be 5330 ng/g; in the data set on Rat [33], 1420 ng/g. Also, the concentration in liver worked out at 91400 ng/g in the data set on Rat [28]; 155000 ng/g in the data set with Rat [29]; 162000 ng/g in the data set with Rat [30]; 630 ng/g in the data set with Rat [31]; 62700 ng/g in the data set with Rat [32]; 80300 ng/g in the data set with Rat [34]. Besides, the concentration in thymus in the data set with Rat [35] was 2120 ng/g; in the data set on Rat [36], 471 ng/g; in the data set on Rat [39] it was 391 ng/g. Also, the concentration in plasma in the data set with Rat [37] turned out to be 4120 ng/mL; in the data set with Rat [38] it was 4780 ng/mL.
